Laboratory results reported in article PMC12750995, “Conformational Dynamics in the Cell Membrane Interactions of Bispecific Targeted Degrader Therapeutics” (Journal of Medicinal Chemistry, 2025).

What was measured:
[1] = design: method as in earlier work; details: rodents; tissue-to-plasma distribution ratios (Kp) indicating substantial binding to tissue components; ref 16 (ARV-110), ref 17 (A947); cited from earlier work
[2] = Equilibrium dialysis binding to HEK293 cell homogenate (fraction unbound); assay type: in vitro ADME; details: human, pH 7.4; fraction unbound in HEK293 cell homogenate, 10 × 10^6 cells/mL, 0.1 μM, 4 h, 37 °C; read-out: fu,hom
Protocol: (§1) The unbound fraction of a selected series of PROTACs was determined through equilibrium dialysis against the cell homogenate. HEK293 cells (ATCC, Manassas, VA) were grown in Dulbecco’s modified Eagle’s medium (DMEM) supplemented with 10% fetal bovine serum (FBS) at 37 °C, 95% relative humidity, and 5% CO2. Cell pellets were harvested using 0.05% trypsin and centrifuged at 260g for 5 min. The cells were resuspended in Dulbecco’s phosphate buffer (DPBS), counted using a Luna II cell counter (Logos Biosystems, Anyang, South Korea) and centrifuged at 260g. The supernatant was discarded, and cell pellets were stored at −80 °C prior to cell homogenate preparation. On the day of the experiment, cell pellets were thawed and resuspended in Hank’s balanced salt solution (HBSS) buffered with 20 mM HEPES (pH 7.4) to a concentration of 10 × 10^6 cells/mL. The cell suspension was homogenized using ultrasonication for 10 s at 20% intensity while kept on ice.
(§2) Compound stability was assessed by adding the compound-spiked cell homogenate to an empty well in the dialysis cassette. At the end of the experiment, these concentrations were compared to identical control samples stored at 4 °C. Mass balance was calculated at the end of each experiment. Further, in all wells, two control compounds (atorvastatin and lopinavir) were included to ensure that the assay plate was functional. All compounds were tested in triplicate in one experiment. Compound 2 was only detected on the cell homogenate side, and thus, the concentration on the buffer side was set to half of the lower limit of quantification to allow calculation of an approximate cell homogenate binding.
(§3) Final samples were matrix matched by taking 1 part sample and 1 part blank cell homogenate or buffer. Proteins were precipitated using 1 part matrix matched sample and 3 parts acetonitrile supplemented with 0.3% formic acid (FA) and 5 nM verapamil (internal standard), and this was diluted 1:1 with Milli-Q prior to centrifugation at 2500g for 20 min. Compound concentrations in the supernatant were quantified using a reversed phase system with a Waters Acquity UPLC HSS T3 column (50 × 2.1 mm, 1.8 μm) in an Aquity UPLC connected to a Xevo TQ-XS mass spectrometer (Waters Corp., Milford, MA). The chromatographic run was done using solvent A (0.1% FA in Milli-Q) and solvent B (0.1% FA in acetonitrile Optima LC/MS grade (Fisher Scientific)) with isocratic conditions between 0 and 0.3 min (99.8% solvent A and 0.2% solvent B), a linear gradient between 0.3 and 1.3 min (from 0.2% to 95% solvent B), isocratic conditions between 1.3 and 1.8 min (95% solvent B), and equilibration back to start conditions between 1.8 and 2.3 min. Mass transitions, cone voltages, and collision energies can be found in Table S4.

HEK293 cell homogenate = test: as above; assay type: in vitro ADME; details: equilibrium dialysis, HEK293 cell homogenate, 0.1 μM
Protocol: as §1, §2, §3

[3] = Caco-2 A-B passive permeability with preincubation, transporter-inhibited; assay type: in vitro ADME; details: human, Caco-2, with 50 μM quinidine, 30 μM benzbromarone, 20 μM sulfasalazine; Figure 3A grouping; read-out: Passive Caco-2 cell permeability group (high, moderate or low)
Protocol: (§4) Transepithelial transport of the compounds through a Caco-2 monolayer (ATCC, HTB-37) was determined in 14–18 days old monolayers in Costar 24-well cell culture cluster plates (polycarbonate membrane, 0.4 μm pore size). Chamber volumes were 200 and 800 μL on the apical and basolateral sides of the cell monolayers, respectively, and all incubations were performed with prewarmed buffers in an orbital shaking incubator at 480 rpm and 37 °C. Prior to the assay, cells were washed with HBSS supplemented with 25 mM HEPES (HBSS-HEPES), pH 7.4, to remove the culture medium. After 15 min of equilibration, the transepithelial electrical resistance (TEER) was determined to assess acceptance of the cell plates into the assay. A second measurement and a lucifer yellow leakage determination was carried out after performing all the transport experiments to monitor integrity of the cell monolayers throughout the study.
(§5) Before the permeability study, to minimize nonspecific binding of PROTACs to the cells and plates, the cells were preincubated with 10 μM compound solution on the apical (donor) side for 1 h, analogous to Muschong et al. Then, cells were washed twice with HBSS-MES pH 6.5 containing 1% BSA. Then, permeability in the absorptive direction (A–B, apical-to-basolateral) was studied over 120 min at a 10 μM test compound concentration. The compound solutions were freshly prepared from DMSO stock solutions diluted into HBSS supplemented with 25 mM MES, pH 6.5, containing efflux inhibitors (50 μM quinidine, 30 μM benzbromarone, and 20 μM sulfasalazine); the final solvent concentration was always 0.5%.
(§6) Samples from the donor side (10 μL) were drawn immediately after the addition of the test compound and after 45 and 120 min. The donor samples were diluted 1:10 in HBSS. From the receiver compartment, an amount of 100 μL was withdrawn after 45 and 120 min and replaced with fresh HBSS-HEPES, pH 7.4.
(§7) Upon completion of the study, all samples were quenched with 300 μL of acetonitrile and analyzed subsequently using UPLC/MS/MS. The permeability was determined as the appearance rate of the compound on the receiver side, in relation to donor concentration, according to eq 4 Papp=dQ/[(dt)(T)]×A/D where dQ/[(dt)(T)] is the slope of the permeation profile across the Caco-2 cell monolayers, A is the surface area of the Transwell insert (0.33 cm^2), and D is the concentration on the donor side. Following the permeability experiments, recovery from the donor and receiver compartments was calculated using eq 5 recovery(%)(0−120min)=CR120×VR+CR45×0.1+CD45×0.01+CD120×VD/D0×VD×100

Caco-2 monolayer = test: as above; assay type: in vitro ADME; details: recovery from donor and receiver compartments, 0-120 min
Protocol: as §4, §5, §6, §7

| SMILES | tissue distribution [1] | fraction unbound at 4 h, 0.1 μM [2] | fu,hom mass balance (HEK293 cell homogenate) [%] | Papp A→B at 120 min, 10 μM [3] [×10⁻⁶ cm/s] | Papp Recovery (%) (0-120 min) (Caco-2 monolayer) |
| --- | --- | --- | --- | --- | --- |
| N#Cc1ccc(O[C@H]2CC[C@H](NC(=O)c3ccc(N4CCC(CN5CCN(c6cc7c(cc6F)C(=O)N(C6CCC(=O)NC6=O)C7=O)CC5)CC4)nn3)CC2)cc1Cl (stereo partly shown) [ARV-110] | widespread and extensive tissue distribution | – | – | – | – |
| Cc1ccc(C(=O)NCCCCc2cn(CCCC(=O)NCCCCNc3cccc4c3C(=O)N(C3CCC(=O)NC3=O)C4=O)nn2)cc1-n1c(C)cc(OCc2ccc(F)cc2F)c(Br)c1=O (stereo not shown) [Compound 3] | – | 0.24 | 111 | < 0.5 | 94 |
| CCCOc1cccc(Oc2cc3c(cc2NS(=O)(=O)c2cccc(C(=O)NCCOCCOCCOCC(=O)N[C@@H](C(=O)N4C[C@@H](O)C[C@@H]4C(=O)NCc4ccc(-c5scnc5C)cc4)C(C)(C)C)c2)n(C)c(=O)n3C)c1 [Compound 4] | – | 0.2 | 66 | 0.5 to 10 | 78 |
| CC(=O)c1c(C)c2cnc(Nc3ccc(N4CCN(CCOCCOCCOCCNC(=O)COc5cccc6c5C(=O)N([C@H]5CCC(=O)NC5=O)C6=O)CC4)cn3)nc2n(C2CCCC2)c1=O [Compound 5] | – | 0.396 | 76 | 0.5 to 10 | 84 |
